Test results from patent US12234288B2, “Immunogenic arginase 2 polypeptides” (IO Biotech ApS, priority 2018, dated 2025).
“Also recorded” adds a separate entry of the source.

Test system: PBMCs from healthy donors and cancer patients
Assay: IFNγ ELISPOT of PBMCs pre-stimulated one week in vitro with peptide and low-dose IL-2
Assay type: cell-based, human
Conditions: for IFNγ ELISPOT response: ARG2 peptide library screen, PBMCs from 6 healthy donors, FIG. 3
Procedure: For in vitro ELISPOT, PBMCs from cancer patients and healthy donors were pulsed with 20 μM of […] (or with no peptide as a control) and 120 U/ml IL-2 in 24-well plates for 7 days before being used in an ELISPOT assay. The cells were placed in 96-well nitrocellulose ELISPOT plates (MultiScreen MAIP N45; Millipore) pre-coated with IFNγ capture antibody (Mabtech). Arginase peptides added to a final concentration of 5 μM and plates incubated at 37° C. for 14-16 hours. After the incubation the cells were washed off and secondary biotinylated Ab (Mabtech, cat. 3420-{6-1000) was added for 2 hours at room temperature. Unbound secondary antibody was washed off and streptavidin conjugated alkaline phosphatase (AP) (Mabtech, cat. 3310-10) was added for 1 hour at room temperature. Unbound conjugated enzyme was washed off and the assay was developed by adding BCIP/NBT substrate (Mabtech, cat. 3650-10). Developed ELISPOT plates were analyzed on CTL ImmunoSpot S6 Ultimate-V analyzer using Immunospot software v5.1. Responses were reported as the difference between average numbers of spots in wells stimulated with arginase2 and wells without added peptide.
To test whether these peptides could be used to identify Arginase2 responses, PBMCs from 12 healthy donors and one cancer patients were screened for responses in IFNγ ELISPOT. PBMCs were stimulated with Arginase2 peptides and low dose IL-2 for 1 week prior to ELISPOT.
The entire arginase2 protein sequence was divided into overlapping 20-amino-acid-long peptides (with a final peptide of 24 amino acids), generating a library of 34 peptides covering the whole sequence (SEQ ID NOs 1-34)). Each peptide in the library overlapped with the first 10 amino acids of the following peptide. Using this arginase2 peptide library and the IFNγ ELISPOT assay, we next screened PBMCs from 6 healthy donors for spontaneous responses. The PBMCs were stimulated for one week with a pool of 3-4 adjacent 20-mer arginase2 library peptides and low-dose IL-2 (120 U/mL). They were then set up for an IFNγ ELISPOT assay to screen for responses against each 20-mer peptide separately.
PBMCs from two healthy donors were stimulated for one week with a single peptide and low-dose IL-2 (120 U/mL) before IFNy ELISPOTassay to validate the responses observed in the library screen.
PBMCs from […] were stimulated for one week with a single peptide and low-dose IL-2 (120 U/mL) before IFNy ELISPOTassay to validate the responses observed in the library screen. ARG2_1, ARG2_5, ARG2_13, ARG2_18 and ARG2_22 were tested in this validation.
ARG2_1 was used to screen for responses in 8 melanoma patients (AA07-AA31), 4 prostate cancer patients (UR07-27) and 13 healthy donors. PBMCs from each were stimulated for one week with a single peptide and low-dose IL-2 (120 U/mL) before IFNy ELISPOT assay.
PBMCs from healthy donors or cancer patients were stimulated with 10 μM of ARG2-derived peptides in vitro to enhance assay sensitivity. On day 2, IL-2 was added to a total of 120 U/ml IL-2 (Novartis). After 7 days, 4-6×10^5 PBMCs were placed at the bottom of an ELISPOT plate pre-coated with IFNy capture antibody (Mabtech). PBMCs from each donor or patient were set up in triplicates or quadruplicates for peptide (5 μM ARG2-derived peptide) and control stimulations. Cells were incubated in ELISPOT plates in the presence of an antigen for 14-16 hrs after which they were washed off and secondary biotinylated antibody (Mabtech) was added. After two hour incubation the secondary antibody was washed off before addition of streptavidin conjugated alkaline phosphatase (Mabtech) for 1 hr. Next, unbound enzyme was washed off and the assay was developed by adding BCIP/NBT subtrate (Mabtech). Developed ELISPOT plates were analyzed on CTL Immunospot S6 Ultimate-V analyzer with ImmunoSpot software, version 5.1. […]

| Sequence | donors with significant IFNy ELISPOT responses (8 melanoma patients, 4 prostate cancer patients and 13 healthy donors (15 out of 25), FIG. 8) | screened donors with significant IFNy ELISPOT responses (33 HDs and 19 cancer patients with solid tumors, FIG. 14A) | IFNγ ELISPOT response (listed as ARG2-1) | IFNγ ELISPOT response (listed as Arg2_1) | AML patients with a significant IFNy ELISPOT response (PBMCs from patients diagnosed with AML, FIG. 14A) | IFNy ELISPOT response (healthy donors and cancer patients, FIG. 14) | IFNy ELISPOT response (validation of other regions, PBMCs from four healthy donors, FIG. 5) | IFNy ELISPOT response (validation of other regions, PBMCs from four healthy donors, FIG. 5, listed as Arg2_1) | donors in which A2L2 immune responses were higher than ARG2-1 responses (6 healthy donors, not significant (p=0.0625), FIG. 15B) | IFNy ELISPOT response (30 healthy donors and 18 cancer patients, FIG. 15) | donors with IFNy ELISPOT responses (30 healthy donors and 18 cancer patients, FIG. 15C) | IFNy ELISPOT response to long peptides (PBMCs from 6 healthy donors stimulated once, FIG. 15A) | immune responses compared to ARG2-1 responses in the same donor (not significant (p=0.7038), FIG. 15E) |
| --- | --- | --- | --- | --- | --- | --- | --- | --- | --- | --- | --- | --- | --- |
| LQTRVHSILKKSVHSVAVIG (listed as Homo sapiens) [ARG2_1, polypeptide derived from human Arginase2, aa11-30] | 60% | around 75% | highest and most frequent responses | highest responses | 3 out of 9 | Strong and frequent responses; also recorded: widely recognized | Strong and prominent responses | strong and prominent responses |  |  |  |  |  |
| SLRGSLSRLLQTRVHSILKKSVHSVAVIGAPFS (listed as Homo sapiens) [A2L2, long ARG2 peptide, aa2-34, 33-mer] |  |  |  |  |  |  |  |  | 5 out of 6 | strong and frequent CD4+ T-cell responses | about 80% | strongest and most frequent immune responses | on average higher |
